The text below walks through data of publication PMC9090717, “Fullerenemalonates inhibit amyloid beta aggregation, in vitro and in silico evaluation” (RSC Advances, 2018).

One data set concerns Aβ42. To be noted: cited from earlier work.
Data set [1] deals with SH-SY5Y neuroblastoma cells. As to conditions: human, 24 h, 13 μM.
Procedure: (§1) The neuroblastoma cell lines SH-SY5Y (ATCC) were grown in 25 cm^2 flasks at 37 °C with 5% CO2 in advanced DMEM/F-12 medium (Sigma-Aldrich), supplemented with 10% fetal bovine serum (Invitrogen); for cytotoxicity assay, cells were seeded at a density of 1 × 10^4 in triplicate per sample in a 96 well microplate 24 h before the treatment. The fullerenemalonates were incubated for 24 h at the corresponding concentration for their ability to inhibit Aβ42 aggregation, 13 μM. Likewise, the vehicles of each fullerenemalonate other than water (acetonitrile and ethanol) were assessed to validate its toxicity. The cell viability assay was evaluated using Thiazolyl Blue Tetrazolium Bromide (MTT, Sigma-Aldrich); based on the conversion of MTT to water-insoluble MTT-formazan of dark blue color by the mitochondrial dehydrogenases of living cells. The absorbance of formazan was measured at a wavelength of 570 nm in a plate reader, iMark Biorad. For a cytotoxic concentration (CC50) the fullerenemalonates were incubated at different concentrations followed by a cell viability assay. The CC50 was determined from the curves obtained by fitting the average absorbance values in three independent experiments in the 10–80 μM fullerenemalonate concentration range.
Data set [2] deals with SH-SY5Y neuroblastoma cells. The experiment in a line: MTT cell viability assay. To be noted: 13 μM, 24 h, normalized to control.
Procedure: as §1
Details of data set [3]: method as in PMID 16853553. As to conditions: aqueous solution; cited from earlier work.

pIC50: −log10 of the molar value. Several values for one entry are separate records, joined by “and”; a condition that tells them apart may be missing. Equal values may be shown once. Read-outs that look alike come from different tables or passages of the source.

One may read the pIC50 as −log10 of the IC50, conventionally taken in molar units. For the molecule 1,2-(dimethoxymethano) fullerene, the pIC50 in the data set with Aβ42 (Aβ42 concentration 20 μM, read-out: IC50, inhibition of Aβ peptide aggregation) was ~5.05.

For the molecule `CCOC(=O)C1(C(=O)OCC)C23c4c5c6c7c8c4-c4c2c2c9c%10c%11c%12c(c-5c5c%13c%14c%15c%16c%17c(c-7c7c%18c%19c%20c%21c(c4C%204C(C(=O)OCC)(C(=O)OCC)C874)c2c2c9c4c%11c7c(c%13%12)c%14c8c%16c9c(c%18%17)c%19c%11c%21c2c2c4c7c8c9c%112)C%152C(C(=O)OCC)(C(=O)OCC)C652)C%1013` (stereo not drawn) [C3-C63(COOEt)6], in data set [1], the “Cell survival rate (%)” value amounted to 78.59 ± 0.22%.

Regarding `CCOC(=O)C1(C(=O)OCC)C23c4c5c6c7c8c9c(c%10c%11c2c2c4c4c%12c5c5c6c6c8c8c%13c9c9c%10c%10c%11c%11c2c2c4c4c%12c%12c5c5c6c8c6c8c%13c9c9c%10c%10c%11c2c2c4c4c%12c5c6c5c8c9c%10c2c45)C713` [C61(COOEt)2], in data set [1], the “Cell survival rate (%)” value stood at 65.65 ± 0.29%.

In the case of `O=C([O-])C1(C(=O)[O-])C23c4c5c6c7c8c9c(c%10c%11c2c2c4c4c%12c5c5c6c6c8c8c%13c9c9c%10c%10c%11c%11c2c2c4c4c%12c%12c5c5c6c8c6c8c%13c9c9c%10c%10c%11c2c2c4c4c%12c5c6c5c8c9c%10c2c45)C713.[Na+].[Na+]` [C61(COONa)2], in data set [2], the “Cell survival rate (%)” value was 64% and 64.34 ± 0.30%. For the same molecule, the “Average hydrodynamic radius Rh of self-assembled particles” value in data set [3] is on record as “≈ 32 nm”.

Regarding sodium fullerenolate, the “Anti-amyloid activity in Aβ42” value in the data set on Aβ42 is “strong anti-amyloid activity”.
